Assay results reported in patent US20220233542A1, “COMPOSITIONS AND METHODS FOR PREVENTING OR TREATING HUMAN IMMUNODEFICIENCY VIRUS ASSOCIATED PULMONARY ARTERIAL HYPERTENSION” (University of Georgia Research Foundation, priority 2019, published 2022).
“And” between values parts separate entries of the source, which are not always exact repeats. Equal values may be shown once. “Also recorded” adds a separate entry of the source.

Key:
TGF-β = experiment: Cytokine measurement in BALF (Cytokine 29-Plex Monkey Panel); format: in vivo, Macaca mulatta; conditions: both statin-treated cohorts compared to PAH+ and PAH− SIV/Untreated controls
Description: To determine if statin treatment could modify these inflammatory mediators associated with SIV-PAH, cytokine profiles in the statin-treated cohorts were compared.
Animals. 28 adult Chinese rhesus macaques (Macaca mulatta) aged 6-10 years old were obtained from national primate centers or vendors and housed in accordance with the NIH Guide for the Care and Use of Laboratory Animals in a BSL2^+ primate facility at the University of Georgia (National Research Council Committee for the Update of the Guide for the Care and Use of Laboratory Animals, Guide for the Care and Use of Laboratory Animals (8th ed.) (National Academies Press National Academy of Sciences., 2011). Prior to admission to the study, all animals were screened and found negative for simian retroviruses and preexisting cardiovascular disease. Study Design and Statin treatment. All cohorts were infected with SIVΔB670 (1:100 in PBS), tissue culture infectious dose of 50% (TCID50)=2.6×10^5), intravenously or mucosally as previously described (Tarantelli et al. (2018); Schweitzer, F. et al. (2019)). […] All procedures were approved by the University of Georgia Institutional Animal Care and Use Committee. […] Quantitative analysis of cytokines and chemokines in the plasma and BALF was performed using the Cytokine 29-Plex Monkey Panel (Invitrogen, Carlsbad, Calif.) according to the manufacturer's instructions. […]

[1] = system: CD14dimCD16+ non-classical monocytes; experiment: Flow cytometry of peripheral blood monocytes; format: in vivo, Macaca mulatta; conditions: both statin cohorts at 6 mpi compared to SIV-PAH+ controls
Excerpt: (§1) Among cytokine signatures associated with the SIV-PAH, MIP-1α, TNF-α, and TGF-β have been previously associated with macrophage populations that promote fibrosis. At 6 mpi, SIV-PAH^+ animals had higher numbers of peripheral blood CD14^dimCD16^+ non-classical monocytes (FIG. 14A, p=0.06) and CCR7^−CD163^−CD206^+ BALF macrophages (FIG. 14C, p=0.04) compared to SIV-PAH^− controls. Moreover, increased numbers of CD14^dimCD16^+ non-classical monocytes (FIG. 14B, left panel, p=0.04) and CD14^+ CCR7^−CD163^−CD206^+ macrophages (FIG. 14D, left panel, p=0.03) correlate with increased pulmonary pressures in SIV/Uninfected controls at 6 mpi. Given the pleiotropic effects of statin upon monocyte and macrophage skewing and cytokine secretion, it was hypothesized that statins may decrease these populations which are associated with SIV-PAH.
(§2) Animals. […] Study Design and Statin treatment. […] Hemodynamic measurements through right hearth catheterization. […] Flow Cytometry. […] Cytokine measurement in plasma and BALF. […] Whole slide images were acquired by Servicebio (Woburn, Mass.). […]

SIVΔB670 = experiment: Plasma viral load throughout SIV infection; format: in vivo, simian immunodeficiency virus (SIV)
Excerpt: Therefore, peripheral blood CD4^+ T cell levels and plasma viral load throughout SIV infection were examined.
Animals. 28 adult Chinese rhesus macaques (Macaca mulatta) aged 6-10 years old were obtained from national primate centers or vendors and housed in accordance with the NIH Guide for the Care and Use of Laboratory Animals in a BSL2^+ primate facility at the University of Georgia (National Research Council Committee for the Update of the Guide for the Care and Use of Laboratory Animals, Guide for the Care and Use of Laboratory Animals (8th ed.) (National Academies Press National Academy of Sciences., 2011). Prior to admission to the study, all animals were screened and found negative for simian retroviruses and preexisting cardiovascular disease. Study Design and Statin treatment. All cohorts were infected with SIVΔB670 (1:100 in PBS), tissue culture infectious dose of 50% (TCID50)=2.6×10^5), intravenously or mucosally as previously described (Tarantelli et al. (2018); Schweitzer, F. et al. (2019)). […] All procedures were approved by the University of Georgia Institutional Animal Care and Use Committee. Hemodynamic measurements through right hearth catheterization. Right heart catheterization was performed and analyzed using a Swan-Ganz balloon wedge pressure catheter advanced through the right atrium, right ventricle, and pulmonary artery as previously described (Tarantelli et al). Flow Cytometry. Peripheral blood and bronchoalveolar lavage fluid (BALF) were collected at baseline (BL), 6 months post infection (mpi) and at study termination (10-12 mpi), and processed for flow cytometry as previously described (Board, K. F. et al. Experimental Pneumocystis carinii pneumonia in simian immunodeficiency virus-infected rhesus macaques. The Journal of infectious diseases 187, 576-588 (2003) and Kling, H. M. et al. Relationship of Pneumocystis jiroveci humoral immunity to prevention of colonization and chronic obstructive pulmonary disease in a primate model of HIV infection. Infection and immunity 78, 4320-4330 (2010)). CD14^dimCD16^+ non-classical monocytes and CCR7^−CD163^−CD206^+ BALF macrophages were identified by flow cytometry and calculated as previously described by Schweitzer, F. et al., supra). All analyses were performed using FlowJo Analysis software (Tree Star, Inc., Ashland, Oreg.). Cytokine measurement in plasma and BALF. Quantitative analysis of cytokines and chemokines in the plasma and BALF was performed using the Cytokine 29-Plex Monkey Panel (Invitrogen, Carlsbad, Calif.) according to the manufacturer's instructions. BALF analytes were normalized on the assumption that plasma and BALF have equal urea concentrations as previously described, using Quanti Chrom Urea Assay Kit (BioAssay Systems, Destin, Fla.) (Schweitzer, F. et al., supra). Histopathology and quantification of right ventricular and lung periarteriolar collagen deposition. 5 μm thick FFPE sections of the right heart and lung were cut and stained with Masson's trichrome and 0.1% Pico Sirius Red counterstained with Weigert's hematoxylin, to reveal fibrillar collagen, respectively by the UGA CVM Histopoathology Laboratory (Athens, Ga.). […] To quantify right ventricular collagen deposition in Masson's trichrome stained sections, 170 mm^2 regions were analyzed using Image J software (imagej.nih.gov/ij), with the threshold color plugin set to RGB; bright blue collagen was selected, converted to a binary image, and measured to quantify the collagen area. […]

[2] = system: CCR7−CD163−CD206+ BALF macrophages; experiment: Flow cytometry of BALF macrophages; format: in vivo, Macaca mulatta; conditions: Groups 2 and 3 at 6 mpi compared to both PAH+ and PAH− SIV/Untreated controls
Excerpt: as §1, §2

[3] = system: right ventricle collagen deposition; experiment: Right ventricular collagen deposition (Masson's trichrome); format: in vivo, Macaca mulatta
Excerpt: Moreover, increases in collagen deposition within the right ventricle (FIG. 15B, P=0.004; FIG. 15C) and small pulmonary arteries (FIG. 15D, P=0.0005) correlated with increased pulmonary pressures in SIV/Uninfected controls. Given the substantial dampening of pro-fibrotic immune phenotypes that occurs with statin treatment, right ventricular and lung periarteriolar collagen deposition were examined following statin treatment.
as §2

[4] = system: SIV-infected rhesus macaques; experiment: SIV-PAH model, hemodynamics by serial right heart catheterization; format: in vivo, Macaca mulatta; conditions: for Incidence PAH ≥ 25 mm Hg 6-12 mpi: number of animals of n = 14; for Prevalence of PAH (% PAH+): n = 14, untreated 52.2
Description: To determine the effect of statin treatment on PAH, SIV-infected rhesus macaques were studied. More specifically, a non-human primate (NHP) model of HIV-associated PAH that closely mimics HIV-PAH using simian immunodeficiency virus (SIV)-infected rhesus macaques (Macaca mulatta) was used. […] Moreover, the histologic and hemodynamic manifestations of SIV-PAH closely approximate those of human PAH.
Hemodynamics were measured by serial right heart catheterizations at baseline (BL), 6 months post-infection (6 mpi), and at the end of study (10-12 mpi) (FIG. 11C, 11D). In contrast to untreated controls (Untreated/SIV Group 1), 14.3% (Table 5, 2 of 14, P=0.03) of statin-treated animals (SIV/Statin Group 2) developed elevated mean pulmonary arterial pressure (mPAP) (monkey 3316 at 25.4 mm Hg and monkey 2416 at 46.3 mm Hg) at 6 mpi (FIG. 1). Of these animals, one maintained slightly elevated mPAP until the end of the study (monkey 3316, terminal mPAP=25.7). At study termination, mPAP of monkey 2416 decreased to 21.2 mm Hg.
It was further tested whether statin treatment initiated following SIV infection could modify PAH incidence or progression (FIG. 11A, SIV/Statin Group 3; Table 6). In this cohort, 1 of 14 monkeys (Table 2, 7.1%, P=0.0097) developed PAH (animal 2916; 6 mpi mPAP=45.5) at 6 mpi.
as §2

[5] = system: small pulmonary arteries collagen deposition; experiment: Lung periarteriolar collagen deposition (Picro-Sirius Red); format: in vivo, Macaca mulatta
[6] = SIV/Statin Group 2, individual animals
[7] = SIV/Statin Group 3, individual animals
[8] = statin-treated cohorts compared with SIV-PAH− controls

`CC(C)c1c(C(=O)Nc2ccccc2)c(-c2ccccc2)c(-c2ccc(F)cc2)n1CC[C@@H](O)C[C@@H](O)CC(=O)O` [atorvastatin] was tested, and the “levels of BALF TGF-β at 6 mpi” value (TGF-β) was “significantly lower”, the “number of CD14dimCD16+ non-classical monocytes” value [1] was “significantly lower” and the “Peak viral load (no. of RNA copies/mL)” value (SIVΔB670; [6]) was 8.1 × 10^6 RNA copies/mL and 7.9 × 10^6 RNA copies/mL and 1.6 × 10^7 RNA copies/mL and 1.3 × 10^7 RNA copies/mL and 7.3 × 10^6 RNA copies/mL and 1.7 × 10^7 RNA copies/mL and 1.8 × 10^7 RNA copies/mL and 4.9 × 10^7 RNA copies/mL and 1.1 × 10^7 RNA copies/mL and 9.3 × 10^6 RNA copies/mL and 3.7 × 10^7 RNA copies/mL and 5.0 × 10^7 RNA copies/mL and 1.0 × 10^7 RNA copies/mL and 5.0 × 10^6 RNA copies/mL. For the same compound, the “Viral set point (no. of RNA copies/mL)” value (SIVΔB670; [6]) was 3.0 × 10^4 RNA copies/mL and 6.1 × 10^3 RNA copies/mL and 1.8 × 10^6 RNA copies/mL and 1.7 × 10^6 RNA copies/mL (2×) and 9.9 × 10^5 RNA copies/mL and 2.7 × 10^5 RNA copies/mL and 1.3 × 10^4 RNA copies/mL and 8.8 × 10^4 RNA copies/mL and 3.5 × 10^5 RNA copies/mL and 4.6 × 10^4 RNA copies/mL and 2.9 × 10^6 RNA copies/mL and 1.4 × 10^5 RNA copies/mL and 1.2 × 10^5 RNA copies/mL, the “Peak viral load (no. of RNA copies/mL)” value (SIVΔB670; SIV/Statin Group 3 (treatment started 4 months following infection), individual animals) was 2.4 × 10^7 RNA copies/mL and 1.6 × 10^7 RNA copies/mL and 1.2 × 10^7 RNA copies/mL and 4.7 × 10^7 RNA copies/mL and 4.3 × 10^7 RNA copies/mL and 2.2 × 10^7 RNA copies/mL and 1.0 × 10^6 RNA copies/mL and 8.4 × 10^5 RNA copies/mL and 8.3 × 10^6 RNA copies/mL and 7.3 × 10^6 RNA copies/mL and 9.6 × 10^6 RNA copies/mL and 8.8 × 10^6 RNA copies/mL and 2.9 × 10^7 RNA copies/mL and 5.8 × 10^6 RNA copies/mL and the “Viral set point (no. of RNA copies/mL)” value (SIVΔB670; [7]) was 1.4 × 10^5 RNA copies/mL and 4.1 × 10^3 RNA copies/mL and 1.1 × 10^6 RNA copies/mL and 7.8 × 10^2 RNA copies/mL and 1.4 × 10^6 RNA copies/mL and 1.2 × 10^7 RNA copies/mL and 1.5 × 10^4 RNA copies/mL and 3.0 × 10^2 RNA copies/mL and 1.1 × 10^5 RNA copies/mL and 1.8 × 10^6 RNA copies/mL and 4.4 × 10^5 RNA copies/mL and 2.8 × 10^3 RNA copies/mL and 4.0 × 10^5 RNA copies/mL and 9.0 × 10^3 RNA copies/mL. For the same compound, the “viral load compared to SIV/Untreated controls” value (SIVΔB670; both statin-treated cohorts, throughout SIV infection) was “did not significantly alter; also recorded: does not significantly affect”, the “number of CCR7−CD163−CD206+ BALF macrophages” value [2] was “significantly reduced” and the “right ventricle collagen deposition” value ([3]; both statin-treated cohorts compared to SIV-PAH+) was “significantly less collagen deposition”. The “right ventricle collagen deposition” value [3, 8] was “considerably less collagen deposition”, the “PAH Status” value [4, 6] was “PAH− (PAH is defined as mPAP≥25 mm Hg); also recorded: PAH+ (PAH is defined as mPAP≥25 mm Hg)” and the “Peak mPAP (mm Hg)” value [4, 6] was 15.2 mm Hg and 46.3 mm Hg and 23.2 mm Hg (2×) and 25.7 mm Hg and 19.2 mm Hg and 17.6 mm Hg and 20.2 mm Hg and 17.4 mm Hg and 16.6 mm Hg and 17.1 mm Hg and 22.0 mm Hg and 20.6 mm Hg and 20.7 mm Hg. The “Incidence PAH ≥ 25 mm Hg 6-12 mpi” value ([4]; SIV/Statin Group 2: atorvastatin 10 mg/day orally from 1 week prior to SIV infection) was 2, the “Prevalence of PAH (% PAH+)” value ([4]; SIV/Statin Group 2: atorvastatin from 1 week prior to SIV infection) was 14.3% and the “Prevalence of PAH (% PAH+)” value ([4]; SIV/Statin Group 2: atorvastatin from 1 week prior to SIV infection, listed as Statin) was 14.3%. For the same compound, the “mPAP at 6 mpi of animals that developed elevated mPAP” value ([4]; SIV/Statin Group 2, monkey 3316 and monkey 2416) was 25.4 mm Hg and 46.3 mm Hg, the “terminal mPAP of animals that developed elevated mPAP” value ([4]; SIV/Statin Group 2, monkey 3316 and monkey 2416, study termination) was 25.7 mm Hg and 21.2 mm Hg and the “PAH Status” value [4, 7] was “PAH− (PAH is defined as mPAP≥25 mm Hg); also recorded: PAH+ (PAH is defined as mPAP≥25 mm Hg)”. For the same compound, the “Peak mPAP (mm Hg)” value [4, 7] was 21.4 mm Hg and 16.8 mm Hg and 13.2 mm Hg and 23.6 mm Hg and 45.5 mm Hg and 22.9 mm Hg and 24.1 mm Hg and 18.9 mm Hg and 20.2 mm Hg and 19.8 mm Hg and 24.4 mm Hg and 19.9 mm Hg, the “Incidence PAH ≥ 25 mm Hg 6-12 mpi” value ([4]; SIV/Statin Group 3: atorvastatin 10 mg/day orally from 4 months following SIV infection) was 1 and the “Prevalence of PAH (% PAH+)” value ([4]; SIV/Statin Group 3: atorvastatin from 4 months following SIV infection) was 7.1%. For the same compound, the “Prevalence of PAH (% PAH+)” value ([4]; SIV/Statin Group 3: atorvastatin from 4 months following SIV infection, listed as Statin) was 7.1%, the “6 mpi mPAP of the animal that developed PAH” value ([4]; SIV/Statin Group 3, animal 2916) was 45.5 and the “incidence of PAH” value ([4]; treatment initiated during the early chronic disease stage) was “reduced incidence of PAH compared to untreated animals”. For the same compound, the “development of SIV-associated PAH” value ([4]; treatment of healthy macaques prior to and throughout SIV infection) was “prevented the development of SIV-associated PAH”, the “small pulmonary arteries collagen deposition” value ([5]; statin-treated cohorts compared to SIV-PAH+) was “significantly less collagen deposition” and the lung collagen deposition [5, 8] was “considerably less collagen deposition”.
